Experimental data from patent publication EP0294940B1, “Pharmaceutical compositions” (FISONS plc, priority 1987, dated 1988).

Test system: adenosine monophosphate induced bronchoconstriction
Assay: Attenuation of adenosine monophosphate (AMP) induced bronchoconstriction (Example E)
Format: in vivo, Atopic healthy volunteers
Settings: AMP dose giving a 40% reduction in pEFR, pretreatment inhaled for five minutes from a Wright Nebuliser
Experimental: Effect of active ingredients A and B, separately and in combination in attenuating adenosine monophosphate induced bronchoconstriction
Atopic healthy volunteers were selected for the study. Prior to the administration of pretreatment, baseline values of forced expiratory volume in one second (FEV₁), partial expiratory flow rate (pEFR) and maximum expiratory flow rate (mEFR) were measured. Measurement was made on at least three occasions or until the readings were stable (less than 5% variation). On each occasion the pretreatment was inhaled for five minutes from a Wright Nebuliser (operating at a flow rate of 7 litres per minute) through the mouth during tidal breathing.
Prior to the commencement of adenosine monophosphate (AMP) challenge FEV₁, pEFR and mEFR were measured. The AMP challenge was performed on each study day by giving doubling doses of AMP, each inhaled for two minutes, from either a Wright Nebuliser (operating at a flow rate of 6.5 litres per minute) or an Acorn Nebuliser (operating at a flow rate of 5.5 litres per minute) until a reduction in pEFR of greater than 40% occurs. The nebuliser chosen for each subject was the same throughout the study. AMP was given in a 1 mg/ml-256 mg/ml concentration range, the diluent being physiological saline. Successive doses were administered at 5 minute intervals. Partial expiratory flow rates were measured at 0.5 and 2.5 minutes after each AMP dose. The dose giving a 40% (PD₄₀) reduction in pEFR was determined by interpolation from a log dose response curve.
The results given in Table 1 were obtained using the procedure of Example E in four volunteers. Ingredient A was nedocromil sodium administered as a 0.5% w/v aqueous solution; ingredient B was atropine methonitrate administered as a 0.2% w/v aqueous solution. The combination was an aqueous solution containing 0.5% w/v nedocromil sodium and 0.2% w/v atropine methonitrate.

| Structure (SMILES) | PD40 (Volunteer 1) [mg/mL] | PD40 (Volunteer 2) [mg/mL] | PD40 (Volunteer 3) [mg/mL] | PD40 (Volunteer 4) [mg/mL] |
| --- | --- | --- | --- | --- |
| CCCc1c2oc(C(=O)O)cc(=O)c2cc2c(=O)cc(C(=O)O)n(CC)c12 [Ingredient A, nedocromil sodium] | 43 | 32 | 17 | 27 |
| C[N+]1(C)[C@@H]2CC[C@H]1C[C@@H](OC(=O)C(CO)c1ccccc1)C2 (some centres unmarked) [Ingredient B, atropine methonitrate] | 42 | 23 | 12 | 3.4 |
